# Reference: ChEMBL document CHEMBL2407058, “Design, Synthesis, and Antiplasmodial Activity of Hybrid Compounds Based on (2R,3S)-N-Benzoyl-3-phenylisoserine” (ACS Med Chem Lett, 2013)
# What was measured:
# Plasmodium falciparum [1] = assay: Antiplasmodial activity against erythrocytic stage of chloroquine-resistant Plasmodium falciparum IndoChina W2 infected in human A positive RBC after 48 hrs by [3H]hypoxanthine incorporation assay; format: functional, organism-based
# L6 = assay: Cytotoxicity against rat L6 cells after 70 hrs by Alamar Blue assay; format: cell-based; details: L6, 70 h
# Plasmodium falciparum [2] = assay: Antiplasmodial activity against erythrocytic stage of multidrug-resistant Plasmodium falciparum Thailand K1 infected in human A positive RBC after 48 hrs by [3H]hypoxanthine incorporation assay; format: functional, organism-based
# [3] = Selectivity index, ratio of IC50 for rat L6 cells to IC50 for erythrocytic stage of chloroquine-resistant Plasmodium falciparum IndoChina W2; format: toxicity, cell-based; details: read-out: Ratio IC50
# Plasmodium falciparum [4] = assay: Ratio of dihydroartemisinin IC50 to compound IC50 for erythrocytic stage of chloroquine-resistant Plasmodium falciparum IndoChina W2; format: functional
Structure (SMILES),IC50 (Plasmodium falciparum [1]) [nM],IC50 (L6) [nM],IC50 (Plasmodium falciparum [2]) [nM],selectivity ratio [3],Ratio IC50 (Plasmodium falciparum [4])
O=C(N[C@@H](c1ccccc1)[C@@H](O)C(=O)O)c1ccccc1,> 10000,> 100000,> 10000,,
OCc1cccc(Nc2ccnc3cc(Cl)ccc23)c1,300,21100,300,70.4,
O=C(N[C@@H](c1ccccc1)[C@@H](O)C(=O)NCCNc1ccnc2cc(Cl)ccc12)c1ccccc1,560,15100,360,27,
O=C(N[C@@H](c1ccccc1)[C@@H](O)C(=O)NCCCNc1ccnc2cc(Cl)ccc12)c1ccccc1,480,28300,1000,59,
[N-]=[N+]=NCCCNc1ccnc2cc(Cl)ccc12,170,9480,330,55.8,
[N-]=[N+]=NCc1cccc(Nc2ccnc3cc(Cl)ccc23)c1,550,76600,1110,139,
[N-]=[N+]=NCc1ccccc1Nc1ccnc2cc(Cl)ccc12,220,,,,
O=C(N[C@@H](c1ccccc1)[C@@H](O)C(=O)NCc1cn(CCNc2ccnc3cc(Cl)ccc23)nn1)c1ccccc1,2710,85600,1110,31.6,
O=C(N[C@@H](c1ccccc1)[C@@H](O)C(=O)NCc1cn(CCCNc2ccnc3cc(Cl)ccc23)nn1)c1ccccc1,1690,88200,390,52.2,
O=C(N[C@@H](c1ccccc1)[C@@H](O)C(=O)NCc1cn(Cc2cccc(Nc3ccnc4cc(Cl)ccc34)c2)nn1)c1ccccc1,280,67900,2440,242,
O=C(N[C@@H](c1ccccc1)[C@@H](O)C(=O)NCc1cn(Cc2ccccc2Nc2ccnc3cc(Cl)ccc23)nn1)c1ccccc1,1050,30100,3240,28.6,
CC(=O)O[C@@H](C(=O)O)[C@@H](NC(=O)c1ccccc1)c1ccccc1,> 10000,> 100000,> 10000,,
C[C@H]1[C@H](OC(=O)[C@H](O)[C@@H](NC(=O)c2ccccc2)c2ccccc2)O[C@@H]2O[C@@]3(C)CC[C@H]4[C@H](C)CC[C@@H]1[C@@]24OO3,5,1030,0.7,206,3
CC(=O)O[C@@H](C(=O)O[C@@H]1O[C@@H]2O[C@@]3(C)CC[C@H]4[C@H](C)CC[C@@H]([C@H]1C)[C@@]24OO3)[C@@H](NC(=O)c1ccccc1)c1ccccc1,5,830,0.5,166,3
OCc1ccccc1Nc1ccnc2cc(Cl)ccc12,40,,,,
O=C(N[C@@H](c1ccccc1)[C@@H](O)C(=O)OCCNc1ccnc2cc(Cl)ccc12)c1ccccc1,390,,,,
CC(=O)O[C@@H](C(=O)OCCNc1ccnc2cc(Cl)ccc12)[C@@H](NC(=O)c1ccccc1)c1ccccc1,220,25200,250,114,
O=C(N[C@@H](c1ccccc1)[C@@H](O)C(=O)OCCCNc1ccnc2cc(Cl)ccc12)c1ccccc1,130,,,,
CC(=O)O[C@@H](C(=O)OCCCNc1ccnc2cc(Cl)ccc12)[C@@H](NC(=O)c1ccccc1)c1ccccc1,160,24200,220,151,
OCCNc1ccnc2cc(Cl)ccc12,550,,,,
OCCCNc1ccnc2cc(Cl)ccc12,410,,,,
[N-]=[N+]=NCCNc1ccnc2cc(Cl)ccc12,290,,,,
C[C@H]1[C@@H](O)O[C@@H]2O[C@@]3(C)CC[C@H]4[C@H](C)CC[C@@H]1[C@@]24OO3 (mixture of isomers) [ARTENIMOL],3,730,1.8,243,
C[C@@H]1CC[C@H]2[C@@H](C)C(=O)O[C@@H]3O[C@@]4(C)CC[C@@H]1[C@]32OO4 [ARTEMISININ],15,,3.2,,
COc1cc([C@@H]2c3cc4c(cc3[C@H](O)[C@H]3COC(=O)[C@H]23)OCO4)cc(OC)c1OC [PODOFILOX],,20,,,
